Measured values published in patent US8691261B2, “Drug, drug guidance system, magnetic detection system, and drug design method” (IHI Corporation, priority 2005, dated 2014).

What was measured:
[1] = compared to cisplatin; cited from earlier work
[2] = magnetic guidance to mouse right kidney, SNR measured by MRI; type: in vivo; conditions: intravenous, 5 mg/ml (15 mM), right kidney approximately 0.3 T, 10 minutes
Source text: Next, another example of a guidance system according to the present invention will be explained. In this guidance system, a pair of magnets 230 and 232 located opposite to each other in a direction of gravitational force is supported by a stand 234 and a clamp 235, and a metal plate 236 is placed between the magnets as shown in FIG. 23. A locally uniform and strong magnet field can be generated by placing the metal plate, particularly an iron plate, between the pair of magnets.
The drug can be concentrated on the target tissues by placing the tissues of the individual body in this area of the magnetic field. The aforementioned metal complex (drug concentration: 5 mg/ml (15 mM)) was administered intravenously to a mouse (weight: approximately 30 g), the abdominal cavity of the mouse was opened, and the mouse was then placed on the iron plate so that its right kidney was positioned between the pair of magnets.
The magnets used were neodymium permanent magnets made by Shin-Etsu Chemical Co., Ltd. (product number: N50; residual magnetic flux density: 1.39-1.44 T). […] The magnetic field was applied to the mouse's right kidney; and 10 minutes later, the SNR of the right kidney as well as the left kidney […] (control) to which no magnetic field was applied was measured in T1 mode and T2 mode, using the MRI system.

rat L6 cells = test: number of rat L6 cells in flask with bar magnet after sprinkling Fe complex powder; type: cell-based; conditions: 48 hours, bar magnet in contact with flask
Source text: A group of samples shown on the left side is obtained by diluting a pyridine concentrate solution with water (double distilled water (DDW)), while a group of samples shown on the right side is obtained by diluting a pyridine iron complex saturated solution with pyridine. By changing the concentration of the iron complex in pyridine to, for example, ½ or 1/16 of the aforementioned concentration of the solution containing only pyridine, the MRI can detect changes in the concentration through images. Subsequently, when rat L6 cells were in 30% confluent state, Fe complex powder was sprinkled over a culture medium as much as required to enable visual observation of the Fe complex powder when being drawn to magnets. 48 hours later, the condition of the culture medium was photographed.
Referring to FIG. 22, “proximal to magnet” means within the projected area of the bottom of the rectangular flask in contact with the end face of the magnet, while “distal from magnet” means an area of the rectangular flask opposite the end face of the magnet. […] As a result, the magnetic drug and the system including the magnetic field generating means according to the present invention can concentrate the drug at the target affected part or tissues of an individual body.

| Molecule | anticancer effect [1] | amount of drug held in kidney tissues (SNR, T1 and T2 mode MRI) [2] | number of cells at area proximal to the magnet compared to area distal from the magnet (rat L6 cells) |
| --- | --- | --- | --- |
| CC(C[NH-])CC[NH-].O=C([O-])C1(C(=O)[O-])CCC1.[Pt+4] [NK121] | comparable to that of cisplatin | – | – |
| Fe-salen | – | larger amount of the drug could be held in the tissues of the right kidney (RT) | extremely low |
